The values that follow come from patent publication US8198273B2, “Compounds and methods for kinase modulation, and indications therefor” (Plexxikon Inc., priority 2009, dated 2012).

Some results are limits rather than exact numbers.

One data set concerns the target c-Raf-1 (Homo sapiens, UniProt P04049). Description: c-Raf-1 biochemical kinase inhibition (AlphaScreen, biotin-MEK1 substrate). Particulars: 100 μM ATP. Summed up:
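IC50 derived from AlphaScreen signal plotted against compound concentration. Final ATP 100 μM; 3 h incubation at room temperature. Eight-point 3-fold dilution series prepared from a 0.1 mM DMSO stock.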

The subject of data set [1] is SW620 colon adenocarcinoma cells (wild-type B-RAF). In words: SW620 cell growth inhibition (ATPlite). The format is cell-based. Particulars: Homo sapiens, SW-620, 72 h; SW620, 3 days incubation. Summed up:
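Cells plated overnight, then exposed 3 days at 37° C to 8-point 1:3 compound dilutions topping at 10 μM final. Viability read as ATPlite luminescence, proportional to cell number; IC50 from luminescence versus concentration.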

Another data set deals with CYP2C19 (Homo sapiens, UniProt P33261). In words: CYP2C19 inhibition (fluorescent substrate). The format is in vitro ADME. The settings on record: CYP2C19, CEC substrate; read-out: Cyp IC50 2C19. Summed up: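 IC50 values come from plotting product fluorescence against compound concentration; inhibition lowers formation of the fluorescent metabolite. Ten-point twofold dilutions in co-factor mix were held 10 minutes at 37 °C before the enzyme reaction, also run at 37 °C.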
CYP2C19, sequence (P33261 whole entry): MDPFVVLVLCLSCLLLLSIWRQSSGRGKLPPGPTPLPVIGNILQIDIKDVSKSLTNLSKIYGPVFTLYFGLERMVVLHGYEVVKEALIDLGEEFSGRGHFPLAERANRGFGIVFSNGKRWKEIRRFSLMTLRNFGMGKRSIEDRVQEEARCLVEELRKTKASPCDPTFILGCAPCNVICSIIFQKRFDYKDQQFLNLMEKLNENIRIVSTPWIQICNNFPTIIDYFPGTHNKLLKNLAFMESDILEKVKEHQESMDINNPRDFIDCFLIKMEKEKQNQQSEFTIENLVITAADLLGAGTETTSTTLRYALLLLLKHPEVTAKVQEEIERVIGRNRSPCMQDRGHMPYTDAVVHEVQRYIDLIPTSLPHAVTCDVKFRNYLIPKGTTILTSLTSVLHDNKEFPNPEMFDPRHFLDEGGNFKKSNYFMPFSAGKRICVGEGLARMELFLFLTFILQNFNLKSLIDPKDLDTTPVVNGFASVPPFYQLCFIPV

In another data set the target is CYP3A4(BFC) (Homo sapiens, UniProt P08684). Description: CYP3A4(BFC) inhibition (fluorescent substrate). The data set is classed as in vitro ADME. The settings on record: read-out: Cyp IC50 3A4(BFC). Summed up:
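Inhibition was followed as loss of fluorescent metabolite from a known substrate, with compound in co-factor mix as a 10-point 1:1 serial dilution (100 mM DMSO stock).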

CYP3A4(BFC), sequence (P08684 whole entry): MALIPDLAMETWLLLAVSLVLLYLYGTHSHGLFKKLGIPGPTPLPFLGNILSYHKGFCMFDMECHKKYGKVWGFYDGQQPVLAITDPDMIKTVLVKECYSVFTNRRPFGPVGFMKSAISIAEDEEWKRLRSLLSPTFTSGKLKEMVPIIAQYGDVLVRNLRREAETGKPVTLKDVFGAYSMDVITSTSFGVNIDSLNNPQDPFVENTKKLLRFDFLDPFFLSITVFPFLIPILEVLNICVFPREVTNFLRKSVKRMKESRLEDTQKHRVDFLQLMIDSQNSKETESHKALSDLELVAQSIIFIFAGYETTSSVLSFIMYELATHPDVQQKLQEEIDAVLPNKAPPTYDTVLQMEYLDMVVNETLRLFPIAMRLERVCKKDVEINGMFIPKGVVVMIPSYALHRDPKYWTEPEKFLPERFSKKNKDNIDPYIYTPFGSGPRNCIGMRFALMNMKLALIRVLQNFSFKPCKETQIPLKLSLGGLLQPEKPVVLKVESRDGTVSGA
c-Raf-1, sequence (P04049 whole entry): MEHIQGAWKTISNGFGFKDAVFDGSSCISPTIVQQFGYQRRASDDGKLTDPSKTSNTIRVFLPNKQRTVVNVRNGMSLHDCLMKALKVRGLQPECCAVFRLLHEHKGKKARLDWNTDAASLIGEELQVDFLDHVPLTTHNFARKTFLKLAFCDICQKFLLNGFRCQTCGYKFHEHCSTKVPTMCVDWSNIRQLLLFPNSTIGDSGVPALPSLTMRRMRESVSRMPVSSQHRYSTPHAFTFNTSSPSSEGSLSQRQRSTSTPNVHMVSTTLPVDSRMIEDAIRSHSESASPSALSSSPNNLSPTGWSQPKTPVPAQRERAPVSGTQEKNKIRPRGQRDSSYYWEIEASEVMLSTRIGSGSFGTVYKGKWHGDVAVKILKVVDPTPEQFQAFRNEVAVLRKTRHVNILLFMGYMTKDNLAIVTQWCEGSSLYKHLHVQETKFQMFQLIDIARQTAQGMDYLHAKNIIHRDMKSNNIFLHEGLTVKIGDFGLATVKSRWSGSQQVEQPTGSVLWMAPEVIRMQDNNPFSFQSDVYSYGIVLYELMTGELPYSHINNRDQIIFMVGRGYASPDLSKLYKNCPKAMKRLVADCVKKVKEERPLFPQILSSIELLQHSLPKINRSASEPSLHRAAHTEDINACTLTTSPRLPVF

For the compound `N#Cc1ccnc2[nH]cc(C(=O)c3c(F)ccc(NS(=O)(=O)c4cccnc4)c3F)c12` [P-2077, Pyridine-3-sulfonic acid [3-(4-cyano-1H-pyrrolo[2,3-b]pyridine-3-carbonyl)-2,4-difluoro-phenyl]-amide], the IC50 against c-Raf-1 was < 0.01 µM; in data set [1], > 10 µM; on CYP2C19, > 10 µM; at CYP3A4(BFC), 5 to 10 µM.

`CCCS(=O)(=O)Nc1ccc(F)c(C(=O)c2c[nH]c3ncc(-c4cnc(C)nc4)cc23)c1F` [P-2211, Propane-1-sulfonic acid {2,4-difluoro-3-[5-(2-methyl-pyrimidin-5-yl)-1H-pyrrolo[2,3-b]pyridine-3-carbonyl]-phenyl}-amide]: the IC50 is < 0.01 µM against c-Raf-1, > 10 µM in data set [1], 5 to 10 µM on CYP2C19 and > 10 µM on CYP3A4(BFC).

For `CCCS(=O)(=O)Nc1ccc(F)c(C(=O)c2c[nH]c3ncc(-c4cnc(N(C)C)nc4)cc23)c1F` [P-2196, Propane-1-sulfonic acid {3-[5-(2-dimethylamino-pyrimidin-5-yl)-1H-pyrrolo[2,3-b]pyridine-3-carbonyl]-2,4-difluoro-phenyl}-amide], the IC50 is < 0.01 µM against c-Raf-1, > 10 µM in data set [1], > 10 µM on CYP2C19 and < 5 µM on CYP3A4(BFC).

Turning to `CCCS(=O)(=O)Nc1ccc(F)c(C(=O)c2c[nH]c3ncc(-c4ccc(Cl)nc4)cc23)c1F` [P-2154, Propane-1-sulfonic acid {3-[5-(6-chloro-pyridin-3-yl)-1H-pyrrolo[2,3-b]pyridine-3-carbonyl]-2,4-difluoro-phenyl}-amide], the IC50 against c-Raf-1 was < 0.01 µM; in data set [1], > 10 µM; at CYP2C19, 5 to 10 µM; on CYP3A4(BFC), > 10 µM.

In the case of `C#Cc1cnc2[nH]cc(C(=O)c3c(F)ccc(NS(=O)(=O)CCC)c3F)c2c1` [P-2260, Propane-1-sulfonic acid [3-(5-ethynyl-1H-pyrrolo[2,3-b]pyridine-3-carbonyl)-2,4-difluoro-phenyl]-amide], the IC50 on c-Raf-1 was < 0.01 µM; in data set [1] it was > 10 µM; at CYP2C19, 5 to 10 µM; on CYP3A4(BFC) it was < 5 µM.

For the compound `N#Cc1cnc2[nH]cc(C(=O)c3cccc(NS(=O)(=O)c4cc(F)ccc4F)c3F)c2c1` [P-2052, N-[3-(5-Cyano-1H-pyrrolo[2,3-b]pyridine-3-carbonyl)-2-fluoro-phenyl]-2,5-difluoro-benzenesulfonamide], the IC50 against c-Raf-1 was < 0.01 µM; in data set [1] it was > 10 µM; at CYP2C19 it was > 10 µM; on CYP3A4(BFC), 5 to 10 µM.

Consider `CCCS(=O)(=O)Nc1ccc(F)c(C(=O)c2c[nH]c3ncc(-c4cncnc4)cc23)c1F` [P-2162, Propane-1-sulfonic acid [2,4-difluoro-3-(5-pyrimidin-5-yl-1H-pyrrolo[2,3-b]pyridine-3-carbonyl)-phenyl]-amide], for which the IC50 on c-Raf-1 is < 0.01 µM; in data set [1] it was > 10 µM; on CYP2C19, > 10 µM; on CYP3A4(BFC) it was 5 to 10 µM.

As for `CCCS(=O)(=O)Nc1ccc(F)c(C(=O)c2c[nH]c3ncc(-c4ccc(OCCCN5CCOCC5)nc4)cc23)c1F` [P-2236, Propane-1-sulfonic acid (2,4-difluoro-3-{5-[6-(3-morpholin-4-yl-propoxy)-pyridin-3-yl]-1H-pyrrolo[2,3-b]pyridine-3-carbonyl}-phenyl)-amide], the IC50 against c-Raf-1 was < 0.01 µM; in data set [1], > 10 µM; at CYP2C19, < 5 µM; at CYP3A4(BFC), < 5 µM.

As to `CCCS(=O)(=O)Nc1ccc(F)c(C(=O)c2c[nH]c3ncc(-c4ccc(S(=O)(=O)N5CCOCC5)cc4)cc23)c1F` [P-2166, Propane-1-sulfonic acid (2,4-difluoro-3-{5-[4-(morpholine-4-sulfonyl)-phenyl]-1H-pyrrolo[2,3-b]pyridine-3-carbonyl}-phenyl)-amide], the IC50 is < 0.01 µM at c-Raf-1, < 10 µM in data set [1], > 10 µM on CYP2C19 and > 10 µM on CYP3A4(BFC).
